In patent US6358943B1, “N-substituted indolines as estrogenic agents” (American Home Products Corporation, priority 1999, dated 2002):

Target: T1, estrogen receptor (ER) (Homo sapiens, UniProt P03372)
T1 construct: expressed in transfected cells; host or cells: CHO cells (cytosol)
T1 sequence (P03372 1-595): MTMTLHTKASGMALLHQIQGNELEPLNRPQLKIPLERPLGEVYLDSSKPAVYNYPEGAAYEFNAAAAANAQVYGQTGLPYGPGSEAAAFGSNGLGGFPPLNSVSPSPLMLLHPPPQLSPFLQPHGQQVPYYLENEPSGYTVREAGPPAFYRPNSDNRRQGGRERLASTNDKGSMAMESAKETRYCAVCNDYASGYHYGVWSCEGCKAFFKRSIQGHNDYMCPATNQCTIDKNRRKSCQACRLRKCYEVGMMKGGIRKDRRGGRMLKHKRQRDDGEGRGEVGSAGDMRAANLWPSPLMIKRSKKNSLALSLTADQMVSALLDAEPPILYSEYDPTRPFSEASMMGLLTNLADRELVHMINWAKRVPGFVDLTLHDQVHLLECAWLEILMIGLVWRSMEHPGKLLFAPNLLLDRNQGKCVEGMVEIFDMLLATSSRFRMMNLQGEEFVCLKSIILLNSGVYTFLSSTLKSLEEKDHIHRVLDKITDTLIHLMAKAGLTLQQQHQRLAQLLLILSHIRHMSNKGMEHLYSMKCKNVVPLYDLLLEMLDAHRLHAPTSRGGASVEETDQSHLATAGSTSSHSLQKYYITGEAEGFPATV
Assay: Receptor Binding Assay: competition with [3H]17β-estradiol, cytosol of CHO cells overexpressing the estrogen receptor
Details: 0.8 nM [3H]17β-estradiol, 12 competitor concentrations, room temperature 2.5 h, CHO cell cytosol

IC50: 350 nM
SMILES: CC1(C)c2cc(O)ccc2N(Cc2ccc(OCCN3CCCCCC3)cc2)C1c1ccc(O)cc1 (stereo not shown) [Example No. 11, 1-[4-(2-Azepan-1-yl-ethoxy)-benzyl]-2-(4-hydroxy-phenyl)-3,3-dimethyl-2,3-dihydro-1H-indol-5-ol]
